{
  "source": "patent US20060020022A1",
  "about": "“Enantioselective separation method” (PHARMACIA & UPJOHN COMPANY LLC, priority 2004, published 2006)",
  "key": {"[1]": {"test": "Photoracemization in ethanol in a 400-mL photoreactor with 450 W UV lamp, e.e. by enantioselective HPLC", "type": "physicochemical", "method": "The mixture was irradiated and aliquots were taken at about time=0, 12, 24, 41, 60, 87, 105, 135, and 162 minutes and analyzed by HPLC.\nThe natural logarithm of e.e. at each time point was determined for each aliquot.\nHalf-lives (minutes) and specific half-lives (minutes per gram) were calculated for each concentration.\nUsing the procedure of Example (E), 10-g of (R)-8-ethyl-6-trifluoromethoxy-2-trifluoromethyl-2H-chromene-3-carboxylic acid was dissolved in 400 mL of ethanol to a concentration of 25-mg/mL, and the mixture was filtered to remove a small amount of insoluble material. The filtrate was placed in the photoreactor and irradiated.\nUsing the procedure of Example (E), 10-g of (R)-6,8-dimethyl-2-trifluoromethyl-2H-chromene-3-carboxylic acid was dissolved in 400 mL of ethanol to a concentration of 25-mg/mL, and the mixture was filtered to remove a small amount of insoluble material. The filtrate was placed in the photoreactor and irradiated."}, "[2]": {"test": "Photoracemization in ethanol in a quartz cuvette under a UV spot lamp, e.e. by enantioselective HPLC", "type": "physicochemical", "details": "for ln (e.e.): 66.7-mg/mL in ethanol; for e.e. by HPLC after irradiation: 50-mg/mL in ethanol, start 21% e.e. of (S), 4 W/cm^2", "method": "Using a column with 0.46 cm inner diameter and 250 mm length filled with […]® AD stationary phase, a 10 μL injection volume, by eluting at room temperature with mobile phase (volume proportions) 95%/5% heptane:ethanol with 0.1% trifluoroacetic acid, at room temperature, flow rate at 1 mL/minute isocratic, and detected with a photodiode array detector at 254 nm wavelength, and a run time of 10 minutes.\nA 1.0-mg/mL solution of (S)-6-chloro-7-tert-butyl-2-trifluoromethyl-2H-chromene-3-carboxylic acid in ethanol was placed in a quartz cuvette and irradiated with light from a UV spot lamp that produced a 5 mm diameter spot of UV light (320-390 nm wavelength) at 4 W/cm^2 intensity.\nThe first aliquot was placed in a quartz cuvette and irradiated in 90-second intervals over 25 minutes with light from a UV spot lamp that produced a 5 mm diameter spot of UV light (320-390 nm wavelength) at 4 W/cm^2 intensity to give a solution with 7.4% e.e. by HPLC. The second aliquot was placed in a quartz cuvette and irradiated continuously over 25 minutes with light from the UV spot lamp to give a solution with 12% e.e. by HPLC.\nA 40-mg/mL solution of (S)-6-chloro-7-tert-butyl-2-trifluoromethyl-2H-chromene-3-carboxylic acid in ethanol was placed in a quartz cuvette and irradiated with light from a UV spot lamp that produced a 5 mm diameter spot of UV light (320-390 nm wavelength) at 4 W/cm^2 intensity. Aliquots were taken at time=0, 1, 2, 4, 8, 12, and 16 minutes and analyzed by HPLC. The experiment was repeated. A rate constant k for each of the two experiments (k1 and k2) was calculated using the following equation: [formula] wherein t is the time in minutes, C is the concentration of chromene in moles per liter, and ln (e.e.) is the natural logarithm of percent enantiomeric excess. The rate constant k1 was 0.0764/minute and k2 was 0.0787/minute. A half-live τ for each of the two experiments (τ1 and τ2) was calculated using the following equation: [formula] […] A specific half-life of about 30 minutes per gram of enantiomer was calculated.\nThe procedure of Example (C) was repeated except the concentration of (S)-6-chloro-7-tert-butyl-2-trifluoromethyl-2H-chromene-3-carboxylic acid in ethanol was 66.7-mg/mL. Aliquots were taken at time=0, 1, 2, 4, 8, 12, and 16 minutes and analyzed by HPLC. The natural logarithm of e.e. at each time point was determined for each aliquot. […] The natural logarithm of e.e. data is provided below in Table 1 in the row labeled “ln (e.e.).”"}, "[3]": {"details": "10-g in 400 mL ethanol, 25-mg/mL, t=5 minutes"}},
  "data": [
    {"smiles": "Cc1cc(C)c2c(c1)C=C(C(=O)O)[C@H](C(F)(F)F)O2", "note": "[(R)-6,8-dimethyl-2-trifluoromethyl-2H-chromene-3-carboxylic acid]", "values": [
      {"measurement": "ln (e.e.)", "setting": "[1]; [3]", "result": "about 4.2"},
      {"measurement": "ln (e.e.)", "setting": "[1]; 10-g in 400 mL ethanol, 25-mg/mL, t=105 minutes", "result": "about 1.0"}
    ]},
    {"smiles": "CC(C)(C)c1cc2c(cc1Cl)C=C(C(=O)O)[C@H](C(F)(F)F)O2", "note": "[(R)-6-chloro-7-tert-butyl-2-trifluoromethyl-2H-chromene-3-carboxylic acid]", "values": [
      {"measurement": "τ", "setting": "[1]; 4.00 g enantiomer, 10.0 mg/mL in ethanol", "result": 9.08, "unit": "min"},
      {"measurement": "τ", "setting": "[1]; 8.00 g enantiomer, 20.0 mg/mL in ethanol", "result": 16.38, "unit": "min"},
      {"measurement": "τ", "setting": "[1]; 10.00 g enantiomer, 25.00 mg/mL in ethanol", "result": 19.68, "unit": "min"},
      {"measurement": "τ", "setting": "[1]; 13.00 g enantiomer, 32.5 mg/mL in ethanol", "result": 22.57, "unit": "min"},
      {"measurement": "τ", "setting": "[1]; 16.00 g enantiomer, 40.0 mg/mL in ethanol, from Example (E)", "result": 31.65, "unit": "min"},
      {"measurement": "rate constant k", "setting": "[1]; 16 g in 400 mL ethanol, 40-g/L", "result": 0.0109, "unit": "min⁻¹"},
      {"measurement": "τ", "setting": "[1]; 20.04 g enantiomer, 50.1 mg/mL in ethanol", "result": 31.39, "unit": "min"},
      {"measurement": "ln (e.e.)", "setting": "[1]; 40-g/L in ethanol, time 0 minutes", "result": 4.5},
      {"measurement": "ln (e.e.)", "setting": "[1]; 40-g/L in ethanol, time 12 minutes", "result": 4.3},
      {"measurement": "ln (e.e.)", "setting": "[1]; 40-g/L in ethanol, time 24 minutes", "result": 4.0},
      {"measurement": "ln (e.e.)", "setting": "[1]; 40-g/L in ethanol, time 41 minutes", "result": 3.6},
      {"measurement": "ln (e.e.)", "setting": "[1]; 40-g/L in ethanol, time 60 minutes", "result": 3.2},
      {"measurement": "ln (e.e.)", "setting": "[1]; 40-g/L in ethanol, time 87 minutes", "result": 2.7},
      {"measurement": "ln (e.e.)", "setting": "[1]; 40-g/L in ethanol, time 105 minutes", "result": 2.2},
      {"measurement": "ln (e.e.)", "setting": "[1]; 40-g/L in ethanol, time 135 minutes", "result": 1.6},
      {"measurement": "ln (e.e.)", "setting": "[1]; 40-g/L in ethanol, time 162 minutes", "result": 1.1}
    ]},
    {"smiles": "CCc1cc(OC(F)(F)F)cc2c1O[C@@H](C(F)(F)F)C(C(=O)O)=C2", "note": "[(R)-8-ethyl-6-trifluoromethoxy-2-trifluoromethyl-2H-chromene-3-carboxylic acid]", "values": [
      {"measurement": "ln (e.e.)", "setting": "[1]; [3]", "result": "about 4.3"},
      {"measurement": "ln (e.e.)", "setting": "[1]; 10-g in 400 mL ethanol, 25-mg/mL, t=95 minutes", "result": "about 1.4"}
    ]},
    {"smiles": "CC(C)(C)c1cc2c(cc1Cl)C=C(C(=O)O)[C@@H](C(F)(F)F)O2", "note": "[(S)-6-chloro-7-tert-butyl-2-trifluoromethyl-2H-chromene-3-carboxylic acid]", "values": [
      {"measurement": "HPLC finding after UV irradiation", "setting": "[2]; 1.0-mg/mL in ethanol, UV 320-390 nm at 4 W/cm^2, after 30 minutes", "result": "racemic mixture"},
      {"measurement": "rate constant k1", "setting": "[2]; 40-mg/mL in ethanol, first experiment", "result": 0.0764, "unit": "min⁻¹"},
      {"measurement": "rate constant k2", "setting": "[2]; 40-mg/mL in ethanol, repeated experiment", "result": 0.0787, "unit": "min⁻¹"},
      {"measurement": "ln (e.e.)", "setting": "[2]; time 0 minutes", "result": 4.4},
      {"measurement": "ln (e.e.)", "setting": "[2]; time 1 minute", "result": 4.3},
      {"measurement": "ln (e.e.)", "setting": "[2]; time 2 minutes", "result": 4.2},
      {"measurement": "ln (e.e.)", "setting": "[2]; time 4 minutes", "result": 4.0},
      {"measurement": "ln (e.e.)", "setting": "[2]; time 8 minutes", "result": 3.8},
      {"measurement": "ln (e.e.)", "setting": "[2]; time 12 minutes", "result": 3.4},
      {"measurement": "ln (e.e.)", "setting": "[2]; time 16 minutes", "result": 3.3}
    ]},
    {"smiles": "CC(C)(C)c1cc2c(cc1Cl)C=C(C(=O)O)C(C(F)(F)F)O2", "note": "[(S)- and (R)-6-chloro-7-tert-butyl-2-trifluoromethyl-2H-chromene-3-carboxylic acid]", "values": [
      {"measurement": "e.e. by HPLC after irradiation", "setting": "[2]; irradiated continuously over 25 minutes", "result": 12, "unit": "%"},
      {"measurement": "e.e. by HPLC after irradiation", "setting": "[2]; irradiated in 90-second intervals over 25 minutes", "result": 7.4, "unit": "%"}
    ]}
  ]
}
